Assay results as given in the supplement of paper PMC10307832.

How the values were obtained:
Experiment in all cases: relative viability (nuclei count vs DMSO), 5 days (fraction); higher = more cells survive
[1] = compound: O=S(=O)(c1ccccc1)N(CC(F)(F)F)c1ccc(C(O)(C(F)(F)F)C(F)(F)F)cc1 + C[C@]1(O)C[C@@H](c2nc(-c3ccc4ccc(-c5ccccc5)nc4c3)c3c(N)nccn32)C1 [Linsitinib] (partner 1 µM)
Outline: (§1)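 The day after seeding in 1536-well plates, lung cancer cell lines were treated by pin tool with a single drug, or with a fixed anchor-drug dose together with five library-drug doses (not always all listed) in √10 steps. After 5 days, a combined fix-and-stain solution (final 0.05% Triton X-100, 1% formaldehyde, 1 ug/ml Hoechst) was added. Nuclei counted on 4× images gave relative viability as treated counts over vehicle counts, reported as the median of duplicate plates.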

RO-3306 + Navitoclax = compound: C1=CC2=C(C=CC(=C2)C=C3C(=O)NC(=NCC4=CC=CS4)S3)N=C1 [RO-3306] + CC1(C)CCC(c2ccc(Cl)cc2)=C(CN2CCN(c3ccc(C(=O)NS(=O)(=O)c4ccc(N[C@H](CCN5CCOCC5)CSc5ccccc5)c(S(=O)(=O)C(F)(F)F)c4)cc3)CC2)C1 [Navitoclax] (partner 0.5 µM)
Outline: as §1

[2] = compound: O=S(=O)(c1ccccc1)N(CC(F)(F)F)c1ccc(C(O)(C(F)(F)F)C(F)(F)F)cc1 + Cc1nc(NC(=O)N2CCC[C@H]2C(N)=O)sc1-c1ccnc(C(C)(C)C(F)(F)F)c1 [Alpelisib] (partner 2 µM)
Outline: as §1

RO-3306 + Pemetrexed = compound: C1=CC2=C(C=CC(=C2)C=C3C(=O)NC(=NCC4=CC=CS4)S3)N=C1 [RO-3306] + Nc1nc2[nH]cc(CCc3ccc(C(=O)N[C@@H](CCC(=O)O)C(=O)O)cc3)c2c(=O)[nH]1 [Pemetrexed] (partner 0.2 µM)
Outline: as §1

UMC-11 was tested. Which relative viability ([1]; first compound 0.8 µM) did it give?
Its relative viability is 1.13.

And the relative viability ([1]; first compound 2.53 µM)?
Its relative viability is 1.08.

And the relative viability ([1]; first compound 8 µM)?
Its relative viability is 1.13.

And the relative viability (RO-3306 + Navitoclax; first compound 0.01 µM)?
The relative viability was 0.325.

What about the relative viability (RO-3306 + Navitoclax; first compound 0.03162 µM) of the same cell line?
Its relative viability is 0.312.

What about the relative viability (RO-3306 + Navitoclax; first compound 0.1 µM) of the same cell line?
The relative viability was 0.305.

And the relative viability (RO-3306 + Navitoclax; first compound 0.3162 µM)?
Its relative viability is 0.321.

And the relative viability (RO-3306 + Navitoclax; first compound 1 µM)?
The relative viability was 0.319.

What about the relative viability ([2]; first compound 0.8 µM) of the same cell line?
The relative viability was 1.24.

And the relative viability ([2]; first compound 2.53 µM)?
Its relative viability is 0.98.

And the relative viability ([2]; first compound 8 µM)?
Its relative viability is 1.25.

What about the relative viability (RO-3306 + Pemetrexed; first compound 0.01 µM) of the same cell line?
Its relative viability is 0.906.

What about the relative viability (RO-3306 + Pemetrexed; first compound 0.03162 µM) of the same cell line?
The relative viability was 0.746.

What about the relative viability (RO-3306 + Pemetrexed; first compound 0.1 µM) of the same cell line?
Its relative viability is 0.816.

What about the relative viability (RO-3306 + Pemetrexed; first compound 0.3162 µM) of the same cell line?
Its relative viability is 0.816.

And the relative viability (RO-3306 + Pemetrexed; first compound 1 µM)?
Its relative viability is 0.791.
